According to patent US9340500B2, “Aromatic heterocyclic derivative having TRPV4-inhibiting activity” (SHIONOGI & CO., LTD., priority 2011, dated 2016):
pKi: −log10 of the molar value.

What was measured:
human TRPV4 = human TRPV4 (Homo sapiens (Human), UniProt Q9HBA0); test: Test Example 3: measurement of TRPV4 inhibitory activity (Fluo-3, FDSS 3000, 4α-PDD); type: cell-based; settings: hTRPV4/CHO cells, calculated from IC50 and 4α-PDD EC50
How it was run: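 Fluo-3-loaded CHO-K1 cells stably expressing TRPV4 in HEPES/probenecid Hanks buffer pH 7.4; compound added, then 4α-PDD, Ca2+ fluorescence (Ex 480/Em 540 nm) read 8 min. Max-Min normalized to 10 μM Ruthenium Red (100%) and vehicle; IC50 from 10-point 3-fold series converted to Ki using 4α-PDD EC50 and concentration.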

[1] = Metabolism stability test; type: in vitro ADME; settings: human liver microsomes, 30 minutes, compound concentration 2 μmol/L
Protocol: Using a commercially available pooled human hepatic microsomes, a test compound was reacted for a constant time, a remaining rate was calculated by comparing a reacted sample and an unreacted sample, thereby, a degree of metabolism in liver was assessed.
A reaction was performed (oxidative reaction) at 37° C. for 0 minute or 30 minutes in the presence of 1 mmol/L NADPH in 0.2 mL of a buffer (50 mmol/L Tris-HCl pH 7.4, 150 mmol/L potassium chloride, 10 mmol/L magnesium chloride) containing 0.5 mg protein/mL of human liver microsomes. After the reaction, 50 μL of the reaction mixture was added to 100 μL of a methanol/acetonitrile=1/1 (v/v), mixed and centrifuged at 3000 rpm for 15 minutes. The test compound in the supernatant was quantified by LC/MS/MS, and a remaining amount of the test compound after the reaction was calculated, letting a compound amount at 0 minute reaction time to be 100%. Hydrolysis reaction was performed in the absence of NADPH and glucuronidation reaction was in the presence of 5 mM UDP-glucuronic acid in place of NADPH, followed by similar operations.

[2] = biological target: human ether-a-go-go related gene (hERG) channel (Homo sapiens (Human), UniProt Q12809); test: hERG test (whole cell patch clamp, IKr); type: cell-based; settings: 1 μmol/L of test compound, HEK293 cells expressing hERG
From the text: For the purpose of assessing risk of an electrocardiogram QT interval prolongation, effects on delayed rectifier K^+ current (IKr), which plays an important role in the ventricular repolarization process, was studied using HEK293 cells expressing human ether-a-go-go related gene (hERG) channel.
After a cell was retained at a membrane potential of −80 mV by whole cell patch clamp method using an automated patch clamp system (PatchXpress 7000A, Axon Instruments Inc.), IKr induced by depolarization pulse stimulation at +40 mV for 2 seconds and, further, repolarization pulse stimulation at −50 mV for 2 seconds was recorded. […] From the recording IKr, an absolute value of the tail peak current was measured based on the current value at the resting membrane potential using an analysis software (DataXpress ver. 1, Molecular Devices Corporation). Further, the % inhibition relative to the tail peak current before application of the test substance was calculated, and compared with the vehicle-applied group (0.1% dimethyl sulfoxide solution) to assess influence of the test substance on IKr.

human TRPV4, sequence (Q9HBA0 whole entry): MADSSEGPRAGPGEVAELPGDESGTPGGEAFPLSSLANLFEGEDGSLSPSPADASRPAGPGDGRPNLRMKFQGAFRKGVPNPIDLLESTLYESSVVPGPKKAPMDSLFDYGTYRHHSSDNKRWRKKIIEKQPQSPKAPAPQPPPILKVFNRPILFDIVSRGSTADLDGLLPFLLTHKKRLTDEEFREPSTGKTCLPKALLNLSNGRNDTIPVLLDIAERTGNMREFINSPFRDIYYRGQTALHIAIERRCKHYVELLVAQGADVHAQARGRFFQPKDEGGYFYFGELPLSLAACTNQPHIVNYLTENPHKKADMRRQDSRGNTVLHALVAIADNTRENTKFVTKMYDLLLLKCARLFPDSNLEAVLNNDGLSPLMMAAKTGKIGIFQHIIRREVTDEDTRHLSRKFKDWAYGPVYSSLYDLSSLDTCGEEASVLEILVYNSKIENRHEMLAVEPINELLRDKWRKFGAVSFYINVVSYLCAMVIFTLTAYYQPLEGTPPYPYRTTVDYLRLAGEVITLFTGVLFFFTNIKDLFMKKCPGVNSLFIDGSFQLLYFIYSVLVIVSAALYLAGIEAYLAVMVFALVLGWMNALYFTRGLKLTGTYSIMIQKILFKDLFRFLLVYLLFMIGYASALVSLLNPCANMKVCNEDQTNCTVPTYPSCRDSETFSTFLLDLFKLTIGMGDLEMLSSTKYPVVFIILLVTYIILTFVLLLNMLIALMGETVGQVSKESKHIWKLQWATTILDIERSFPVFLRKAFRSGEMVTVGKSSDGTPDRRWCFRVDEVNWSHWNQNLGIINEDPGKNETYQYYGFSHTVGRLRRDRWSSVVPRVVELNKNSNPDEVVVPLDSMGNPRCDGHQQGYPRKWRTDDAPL
human ether-a-go-go related gene (hERG) channel, sequence (Q12809 whole entry): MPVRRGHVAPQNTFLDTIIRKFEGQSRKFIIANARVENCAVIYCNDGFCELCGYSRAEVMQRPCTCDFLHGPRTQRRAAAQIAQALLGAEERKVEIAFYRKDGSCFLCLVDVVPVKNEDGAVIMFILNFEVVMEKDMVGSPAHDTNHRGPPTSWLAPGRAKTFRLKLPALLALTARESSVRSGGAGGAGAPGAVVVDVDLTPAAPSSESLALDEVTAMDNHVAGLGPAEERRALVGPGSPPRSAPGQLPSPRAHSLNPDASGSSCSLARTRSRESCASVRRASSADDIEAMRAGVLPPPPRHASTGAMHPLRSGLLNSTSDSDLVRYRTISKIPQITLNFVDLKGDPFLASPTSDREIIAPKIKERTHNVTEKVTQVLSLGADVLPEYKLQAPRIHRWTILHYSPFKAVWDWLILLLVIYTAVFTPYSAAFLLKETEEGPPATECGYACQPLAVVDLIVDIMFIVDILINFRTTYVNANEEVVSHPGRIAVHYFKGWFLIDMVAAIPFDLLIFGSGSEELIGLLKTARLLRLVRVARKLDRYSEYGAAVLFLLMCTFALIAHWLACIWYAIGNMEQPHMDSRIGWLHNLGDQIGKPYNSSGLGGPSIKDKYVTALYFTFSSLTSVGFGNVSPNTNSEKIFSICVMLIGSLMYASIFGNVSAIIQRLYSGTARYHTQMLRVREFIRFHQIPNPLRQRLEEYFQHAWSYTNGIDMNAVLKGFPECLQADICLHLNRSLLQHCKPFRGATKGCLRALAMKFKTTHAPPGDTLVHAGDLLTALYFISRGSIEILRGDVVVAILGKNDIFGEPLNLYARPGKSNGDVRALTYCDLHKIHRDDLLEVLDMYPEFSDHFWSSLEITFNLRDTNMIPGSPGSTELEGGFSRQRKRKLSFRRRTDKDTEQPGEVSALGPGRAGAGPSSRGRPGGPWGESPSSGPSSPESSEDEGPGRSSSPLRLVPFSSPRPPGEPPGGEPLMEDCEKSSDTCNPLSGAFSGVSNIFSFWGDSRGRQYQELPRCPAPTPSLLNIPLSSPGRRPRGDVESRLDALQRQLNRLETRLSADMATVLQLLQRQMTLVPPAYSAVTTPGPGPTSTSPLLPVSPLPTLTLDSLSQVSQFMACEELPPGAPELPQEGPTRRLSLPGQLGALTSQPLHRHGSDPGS

pKi (human TRPV4)	Structure (SMILES)	remaining rate (metabolism stability) [1] [%]	hERG % inhibition [2] [%]
6.77	Cc1c(C(=O)Nc2cccc(C(F)(F)F)c2)cc(-c2ccccc2)n1CCCN(C)C [Compound I-018]	70.6	–
6.37	Cc1c(C(=O)Nc2cccc(C(F)(F)F)c2)cc(-c2ccccc2)n1CCCNS(C)(=O)=O [Compound I-026]	–	11.7

Structure (SMILES)	pKi (human TRPV4)	remaining rate (metabolism stability) [1] [%]	hERG % inhibition [2] [%]
Cc1c(C(=O)Nc2cccc(C(F)(F)F)c2)ccn1CCCN1CCOCC1 [Compound I-007]	5.84	85	–
